# Experiments:
# [1] = test system: B16, B16-F0, Melan-a and PAM212 mouse cell lines; assay: RT-qPCR of POMC and Mitf after forskolin treatment, mouse cell lines; type: cell-based; details: 20 μM forskolin; mouse cells
# Method: (§1) UACC62 and UAC257 human melanoma cells were obtained from NCI and grown in RPMI (Cellgro) medium supplemented with 10% fetal bovine serum and penicillin/streptomycin/L-glutamine. Malme-3M human melanoma and B16 mouse melanoma cell line were obtained from ATCC and grown in DEMEM (Cellgro) medium supplemented with 5% fetal bovine serum and 1% penicillin/streptomycin/L-glutamine. Melan-a cells were kindly provided by Dorothy C. Bennett and were grown in Ham's F10 medium supplemented with 10% fetal bovine serum and 1% penicillin/streptomycin/L-glutamine. The mouse keratinocyte cell line PAM212 was generously shared by Dr. Paolo Dotto (Massachusetts General Hospital and Harvard Medical School, Boston, Mass.) and grown in 10% fetal bovine serum and 1% penicillin/streptomycin/L-glutamine. Cells were grown to 70% confluence prior to use in experiments in humidified incubators supplemented with 5% CO2.
# (§2) After forskolin (Sigma) treatment at 20 μM final concentration at the stated times, mRNA was isolated using RNeasy® plus minikits from Qiagen, and was subjected to KAPA SYBR® FAST One-Step qRT-PCR (Kapa Biosystems). For each reaction, 100 ng of RNA was subjected to the following steps: reverse transcription for 30 min at 48° C., inactivation for 10 min at 95° C., expansion for 40 cycles (15 sec at 95° C. and 30 sec at 60° C.). The results are the average of three independent experiments. […]
# [2] = test system: Malme-3M, UAC257 and UACC62 human melanoma cell lines; assay: RT-qPCR of POMC after forskolin treatment, human melanoma cell lines; type: cell-based; details: 20 μM forskolin; human samples
# Method: as §1, §2
# β-endorphin = assay: Plasma β-endorphin after topical forskolin treatment; type: in vivo; details: male mice, non-K14-SCF vs K14-SCF/Mc1r^e/e
# Method: Blood samples from mice were collected in EDTA microvotte tubes containing 0.6 UTI aprotinin (Sigma). Samples were spun at 3500 rpm at 4° C. for 20 min and the plasma (top layer) was isolated and transferred to a new tube and stored at −80° C. until β-endorphin measurement was performed. β-Endorphin was measured using a radioimmunoassay from Phoenix Pharmaceuticals, following the manufacturer's instructions.
# All experiments were done in C57BL/6J (Jackson laboratory) mice. C57BL/6J Mc1r^e/e (described at Robbins L S, et al., Pigmentation phenotypes of variant extension locus alleles result from point mutations that alter MSH receptor function. Cell. 1993 Mar. 26; 72(6) 72, 827-834.) were crossed with K14-Scf transgenic mice as previously reported (Kunisada T, et. al., Development. 1998 August; 125(15):2915-23.). Mice were 8 weeks old at the start of each experiment.
# A crude extract of Coleus forskohlii root preparation was used as a working source of forskolin (ATZ Natural, Edgewater, N.J.) for the topical treatment of this drug (Lin C B, et. al., Modulation of microphthalmia-associated transcription factor gene expression alters skin pigmentation. J Invest Dermatol 119, 1330-1340 (2002)). […] Samples were processed and β-endorphin was measured.
# mice = assay: Conditioned place preference testing with i.v. β-endorphin; type: in vivo; details: i.v. tail vein
# Description: To test whether it is plausible that skin-derived β-endorphin may cause central effects we decided to assess whether peripherally administered β-endorphin injected i.v. into the tail vein could cause conditioned place preference.
Compound,time of peak Mitf mRNA expression after treatment [1],time of peak POMC mRNA expression after treatment [1],time point of increase of POMC after treatment [2],"β-endorphin fold induction, comparison of genotypes (β-endorphin)",conditioned place preference (time spent in the white box) (mice)
C=C[C@@]1(C)CC(=O)[C@]2(O)[C@@]3(C)[C@@H](O)CCC(C)(C)[C@@H]3[C@H](O)[C@H](OC(C)=O)[C@@]2(C)O1 [forskolin],2 h,8 h,2 to 4 h,higher fold induction in the non-K14-SCF mice compared to the K14-SCF/Mc1r^e/e,–
"β-endorphin (YGGFMTSEKSQTPLVTLFKNAIIKNAYKKGE; Beta-endorphin; UniProt P01189 237-267, looked up) [endogenous opioid peptide, administered i.v. through the tail vein]",–,–,–,–,spent more time in the white box after conditioning
